Results as given in patent US4604239A, “Antibiotics” (Eli Lilly and Company, priority 1985, dated 1986).
Values after ≈ are worked out from the molar mass of the structure shown. Where two headings read alike, the source gives them in different places.

What was measured:
[1] = system: Clostridium difficile; format: cell-based; conditions: Table 16
[2] = system: Peptostreptococcus intermedius; assay: agar-dilution MIC; format: cell-based
[3] = system: Streptococcus pneumoniae; assay: agar-dilution MIC; format: cell-based
Text: (§1) The agar-dilution procedure described by the International Collaborative study (ICS) group was used to determine the minimum inhibitory concentrations (MIC's).

[4] = system: Bacteroides fragilis; assay: agar-dilution MIC; format: cell-based
Text: as §1

[5] = system: Streptococcus pyogenes; assay: agar-dilution MIC; format: cell-based
Text: as §1

[6] = system: Streptococcus sp. (Group D); assay: agar-dilution MIC; format: cell-based
Text: as §1

[7] = system: Staphylococcus epidermidis; assay: agar-dilution MIC; format: cell-based
Text: as §1

[8] = system: S. pyogenes; assay: experimental bacterial infection in mice; format: in vivo

## NC1C(=O)NC2Cc3ccc(c(Cl)c3)Oc3cc4cc(c3O)Oc3ccc(cc3Cl)C(O)C3NC(=O)C(NC(=O)C4NC(=O)C(NC2=O)c2cc(O)cc(c2)Oc2cc1ccc2O)c1cc(Cl)c(O)c(c1)-c1c(O)cc(O)cc1C(C(=O)O)NC3=O (stereo not drawn) [A41030 factor A]
[1]; Clostridium difficile A-195
  MIC: 1.0 µg/mL (≈ 0.811 µM)
[1]; Clostridium difficile A-196
  MIC: 1.0 µg/mL (≈ 0.811 µM)
[1]; Clostridium difficile A-279
  MIC: 1.0 µg/mL (≈ 0.811 µM)
[1]; Clostridium difficile A-280
  MIC: 1.0 µg/mL (≈ 0.811 µM)
[1]; Clostridium difficile A-281
  MIC: 1.0 µg/mL (≈ 0.811 µM)
[1]; Clostridium difficile WAL-2112
  MIC: 1.0 µg/mL (≈ 0.811 µM)
[1]; Clostridium difficile WAL-3657
  MIC: 1.0 µg/mL (≈ 0.811 µM)
[1]; Clostridium difficile WAL-4268
  MIC: 1.0 µg/mL (≈ 0.811 µM)
[2]; Peptostreptococcus intermedius 1264, Table 14
  MIC: 1.0 µg/mL (≈ 0.811 µM)
[2]; Ps. intermedius 1264, Table 15
  MIC: ≤ 0.03 µg/mL
[2]; Ps. intermedius 1524, Table 15
  MIC: 0.5 µg/mL (≈ 0.405 µM)
[2]; Ps. intermedius 1624, Table 15
  MIC: 1.0 µg/mL (≈ 0.811 µM)
[3]; Streptococcus pneumoniae 2764, Table 11
  MIC: 0.25 µg/mL (≈ 0.203 µM)
[3]; Streptococcus pneumoniae 6301, Table 11
  MIC: 0.25 µg/mL (≈ 0.203 µM)
[3]; Streptococcus pneumoniae B1-438, end point after 24 hours, Table 18
  MIC: 0.25 µg/mL (≈ 0.203 µM)
[3]; Streptococcus pneumoniae BI-343, Table 11
  MIC: 0.25 µg/mL (≈ 0.203 µM)
[3]; Streptococcus pneumoniae Park I, Table 11
  MIC: 0.25 µg/mL (≈ 0.203 µM)
[3]; Streptococcus pneumoniae Park I, Table 17
  MIC: 0.5 µg/mL (≈ 0.405 µM)
[3]; Streptococcus pneumoniae Type 14, Table 11
  MIC: 0.25 µg/mL (≈ 0.203 µM)
[4]; B. fragilis 2, 24-hour, Table 12
  MIC: 64 µg/mL (≈ 51.9 µM)
[4]; B. fragilis 9, 24-hour, Table 12
  MIC: 64 µg/mL (≈ 51.9 µM)
[4]; B. fragilis 103, 24-hour, Table 12
  MIC: 32 µg/mL (≈ 25.9 µM)
[4]; B. fragilis 104, 24-hour, Table 12
  MIC: 32 µg/mL (≈ 25.9 µM)
[4]; B. fragilis 106, 24-hour, Table 12
  MIC: 64 µg/mL (≈ 51.9 µM)
[4]; B. fragilis 107, 24-hour, Table 12
  MIC: 32 µg/mL (≈ 25.9 µM)
[4]; B. fragilis 108, 24-hour, Table 12
  MIC: 32 µg/mL (≈ 25.9 µM)
[4]; B. fragilis 110, 24-hour, Table 12
  MIC: 64 µg/mL (≈ 51.9 µM)
[4]; B. fragilis 111, 24-hour, Table 12
  MIC: 32 µg/mL (≈ 25.9 µM)
[4]; B. fragilis 112, 24-hour, Table 12
  MIC: 64 µg/mL (≈ 51.9 µM)
[4]; B. fragilis 113, 24-hour, Table 12
  MIC: 32 µg/mL (≈ 25.9 µM)
[4]; B. fragilis 1451, 24-hour, Table 12
  MIC: 64 µg/mL (≈ 51.9 µM)
[4]; B. fragilis 1470, 24-hour, Table 12
  MIC: 64 µg/mL (≈ 51.9 µM)
[4]; B. fragilis 1877, 24-hour, Table 12
  MIC: 32 µg/mL (≈ 25.9 µM)
[4]; B. fragilis 9032, 24-hour, Table 12
  MIC: 64 µg/mL (≈ 51.9 µM)
[4]; Bacteroides fragilis 1877, Table 14
  MIC: 32 µg/mL (≈ 25.9 µM)
[4]; Bacteroides fragilis 1936B, Table 14
  MIC: 64 µg/mL (≈ 51.9 µM)
[5]; Streptococcus pyogenes 9943, Table 11
  MIC: 0.25 µg/mL (≈ 0.203 µM)
[5]; Streptococcus pyogenes 10389, Table 11
  MIC: 0.25 µg/mL (≈ 0.203 µM)
[5]; Streptococcus pyogenes 12344, Table 11
  MIC: 0.5 µg/mL (≈ 0.405 µM)
[5]; Streptococcus pyogenes C203, Table 11
  MIC: 0.25 µg/mL (≈ 0.203 µM)
[5]; Streptococcus pyogenes C203, Table 17
  MIC: 0.5 µg/mL (≈ 0.405 µM)
[5]; Streptococcus pyogenes C203, end point after 24 hours, Table 18
  MIC: 0.25 µg/mL (≈ 0.203 µM)
[5]; Streptococcus pyogenes M-6517, Table 11
  MIC: 0.25 µg/mL (≈ 0.203 µM)
[6]; Streptococcus sp. (Group D) 238, Table 11
  MIC: 0.25 µg/mL (≈ 0.203 µM)
[6]; Streptococcus sp. (Group D) 282, Table 11
  MIC: 0.25 µg/mL (≈ 0.203 µM)
[6]; Streptococcus sp. (Group D) 9901, Table 11
  MIC: 0.25 µg/mL (≈ 0.203 µM)
[6]; Streptococcus sp. (Group D) 12253F, Table 11
  MIC: 0.25 µg/mL (≈ 0.203 µM)
[6]; Streptococcus sp. (Group D) Guze, Table 11
  MIC: 0.25 µg/mL (≈ 0.203 µM)
[6]; Streptococcus sp. Group D 2041, end point after 24 hours, Table 18
  MIC: 0.5 µg/mL (≈ 0.405 µM)
[6]; Streptococcus sp. Group D 2058, end point after 24 hours, Table 18
  MIC: 0.5 µg/mL (≈ 0.405 µM)
[6]; Streptococcus sp. Group D 8043, end point after 24 hours, Table 18
  MIC: 0.25 µg/mL (≈ 0.203 µM)
[6]; Streptococcus sp. Group D 9901, end point after 24 hours, Table 18
  MIC: 1 µg/mL (≈ 0.811 µM)
[6]; Streptococcus sp. Group D 9960, Table 17
  MIC: 2 µg/mL (≈ 1.62 µM)
[6]; Streptococcus sp. Group D 9960, end point after 24 hours, Table 18
  MIC: 0.5 µg/mL (≈ 0.405 µM)
[6]; Streptococcus sp. Group D 12253F, end point after 24 hours, Table 18
  MIC: 0.25 µg/mL (≈ 0.203 µM)
[6]; Streptococcus sp. Group D Mx161, end point after 24 hours, Table 18
  MIC: 0.25 µg/mL (≈ 0.203 µM)
[6]; Streptococcus sp. Group D X66, Table 17
  MIC: 1 µg/mL (≈ 0.811 µM)
[6]; Streptococcus sp. Group D X66, end point after 24 hours, Table 18
  MIC: 0.25 µg/mL (≈ 0.203 µM)
[7]; Staphylococcus epidermidis 219, end point after 24 hours, Table 18
  MIC: 0.06 µg/mL (≈ 0.0486 µM)
[7]; Staphylococcus epidermidis 269, end point after 24 hours, Table 18
  MIC: 0.06 µg/mL (≈ 0.0486 µM)
[7]; Staphylococcus epidermidis 270, end point after 24 hours, Table 18
  MIC: 0.06 µg/mL (≈ 0.0486 µM)
[7]; Staphylococcus epidermidis 285, end point after 24 hours, Table 18
  MIC: 0.06 µg/mL (≈ 0.0486 µM)
[7]; Staphylococcus epidermidis Britton, Table 11
  MIC: 0.13 µg/mL (≈ 0.105 µM)
[7]; Staphylococcus epidermidis EPI2, Table 17
  MIC: 1 µg/mL (≈ 0.811 µM)
[7]; Staphylococcus epidermidis Litton, Table 11
  MIC: 0.13 µg/mL (≈ 0.105 µM)
[7]; Staphylococcus epidermidis Mencher, Table 11
  MIC: ≤ 0.06 µg/mL
[7]; Staphylococcus epidermidis Mobley, Table 11
  MIC: ≤ 0.06 µg/mL
[8]; S. pyogenes infection in mice, two doses subcutaneously
  ED50: 2.8 mg/kg
[8]; against S. pyogenes in mice, oral
  in vivo oral activity: > 300 mg./kg. X 2
